The record followed here is PubChem BioAssay (NCI).

“And” between values parts separate entries of the source, which are not always exact repeats. Equal entries are not always repeated.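 96-well plates; 48 h exposure; 5 concentrations. Endpoints by linear interpolation between flanking doses. Not reached: highest tested concentration assigned. At the GI50, growth is halved. TGI: concentration producing complete growth inhibition.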

For one assay, the system named is RPMI-8226 leukemia. Put plainly: growth of human tumour cells (NCI), 48 h.
`CCOc1ccc(Nc2c3ccccc3nc3ccccc23)cc1`: the GI50 is 1.07 µM and 0.364 µM; the TGI was 4.58 µM and 4.03 µM.

As to `CCCCCCCCCCCCCC[n+]1cccc(C(N)=O)c1`, the GI50 was 1.87 µM and the TGI was determined as 4.44 µM.

With `COc1cc2nc(-c3ccc(C(F)(F)F)cc3)cc(OCCCN3CCCC3)c2cc1OC`, the GI50 is 0.0786 µM and the TGI stood at 1.6 µM.

Turning to `C/C1=C\CC[C@@](C)(O)[C@@H]2C[C@H](CC/C(C)=C/CC1)C1(CC1)C(=O)O2`, the GI50 was 20.3 µM and the TGI came to 46.4 µM.

For `COc1ccc(C(=O)c2nc3ccccc3n2CC(=O)c2ccc(Cl)cc2)cc1`, the GI50 was 1.71 µM and the TGI was greater than 23.9 µM.

With `O=C(NCCN1CCNCC1)c1ccc(Nc2nc3ccccc3c3occc23)cc1`, the GI50 was 18.7 µM and the TGI was 49.1 µM.

In the case of `COc1cc(C2c3cc4c(cc3[C@@H](Nc3ccc5c(c3)OCCO5)C3COC(=O)[C@H]23)OCO4)cc(OC)c1O` (stereo not given in full), the TGI was determined as 8.42 µM.

In the case of `OCc1ccc(N2CCOCC2)cc1Cl`, the GI50 is greater than 84.4 µM and the TGI was greater than 100 µM.

For the next assay, the system named is SF-268 CNS. Briefly: growth of human tumour cells (NCI), 48 h.
On to `CCOc1ccc(Nc2c3ccccc3nc3ccccc23)cc1`, for which the GI50 was 0.709 µM and 0.526 µM; the TGI is 19.1 µM and 13.9 µM.

For the compound `CCCCCCCCCCCCCC[n+]1cccc(C(N)=O)c1`, the GI50 was 1.66 µM and the TGI turned out to be 4.48 µM.

Turning to `COc1cc2nc(-c3ccc(C(F)(F)F)cc3)cc(OCCCN3CCCC3)c2cc1OC`, the GI50 is 3.5 µM and the TGI is greater than 48.1 µM.

In the case of `C/C1=C\CC[C@@](C)(O)[C@@H]2C[C@H](CC/C(C)=C/CC1)C1(CC1)C(=O)O2`, the GI50 is 81.7 µM and the TGI was greater than 100 µM.

Regarding `COc1ccc(C(=O)c2nc3ccccc3n2CC(=O)c2ccc(Cl)cc2)cc1`, the GI50 is 5.98 µM and the TGI was greater than 100 µM.

On to `O=C(NCCN1CCNCC1)c1ccc(Nc2nc3ccccc3c3occc23)cc1`, for which the GI50 is 21.3 µM and the TGI was greater than 100 µM.

As to `COc1cc(C2c3cc4c(cc3[C@@H](Nc3ccc5c(c3)OCCO5)C3COC(=O)[C@H]23)OCO4)cc(OC)c1O` (stereo not given in full), the TGI stood at 23.1 µM.

Regarding `OCc1ccc(N2CCOCC2)cc1Cl`, the GI50 is greater than 100 µM and the TGI was greater than 100 µM.

The subject of the next assay is SF-295 CNS. Put plainly: growth of human tumour cells (NCI), 48 h.
As for `CCOc1ccc(Nc2c3ccccc3nc3ccccc23)cc1`, the GI50 was 0.228 µM and 0.219 µM; the TGI is 1.11 µM and 0.956 µM.

Consider `CCCCCCCCCCCCCC[n+]1cccc(C(N)=O)c1`, for which the GI50 was 1.69 µM and the TGI was found to be 4.23 µM.

Consider `COc1cc2nc(-c3ccc(C(F)(F)F)cc3)cc(OCCCN3CCCC3)c2cc1OC`, for which the GI50 is 0.393 µM and the TGI worked out at 1.64 µM.

Regarding `C/C1=C\CC[C@@](C)(O)[C@@H]2C[C@H](CC/C(C)=C/CC1)C1(CC1)C(=O)O2`, the GI50 was 26.7 µM and the TGI came out at 85.6 µM.

For the compound `COc1ccc(C(=O)c2nc3ccccc3n2CC(=O)c2ccc(Cl)cc2)cc1`, the GI50 was 2.5 µM and the TGI was greater than 100 µM.

For the compound `O=C(NCCN1CCNCC1)c1ccc(Nc2nc3ccccc3c3occc23)cc1`, the GI50 was 10.9 µM and the TGI was found to be 30.5 µM.

With `COc1cc(C2c3cc4c(cc3[C@@H](Nc3ccc5c(c3)OCCO5)C3COC(=O)[C@H]23)OCO4)cc(OC)c1O` (stereo not given in full), the TGI was found to be 4.25 µM.

Regarding `OCc1ccc(N2CCOCC2)cc1Cl`, the GI50 is 28.2 µM and the TGI is greater than 100 µM.

A further assay has as its system SNB-19 CNS. Briefly: growth of human tumour cells (NCI), 48 h.
`CCOc1ccc(Nc2c3ccccc3nc3ccccc23)cc1`: the GI50 was 0.817 µM and 0.556 µM; the TGI was 13.8 µM and 15.3 µM.

Turning to `CCCCCCCCCCCCCC[n+]1cccc(C(N)=O)c1`, the GI50 is 1.01 µM and the TGI came out at 2.4 µM.

With `COc1cc2nc(-c3ccc(C(F)(F)F)cc3)cc(OCCCN3CCCC3)c2cc1OC`, the GI50 is 5.23 µM and the TGI amounted to 21.5 µM.

With `C/C1=C\CC[C@@](C)(O)[C@@H]2C[C@H](CC/C(C)=C/CC1)C1(CC1)C(=O)O2`, the GI50 was 61.9 µM and the TGI is greater than 100 µM.

`COc1ccc(C(=O)c2nc3ccccc3n2CC(=O)c2ccc(Cl)cc2)cc1`: the GI50 was 4.32 µM and the TGI was greater than 100 µM.

As for `O=C(NCCN1CCNCC1)c1ccc(Nc2nc3ccccc3c3occc23)cc1`, the GI50 was 15.5 µM and the TGI is greater than 100 µM.

With `COc1cc(C2c3cc4c(cc3[C@@H](Nc3ccc5c(c3)OCCO5)C3COC(=O)[C@H]23)OCO4)cc(OC)c1O` (stereo not given in full), the TGI stood at 66.6 µM.

As to `OCc1ccc(N2CCOCC2)cc1Cl`, the GI50 was greater than 100 µM and the TGI is greater than 100 µM.

The subject of the next assay is UO-31 renal. Put plainly: growth of human tumour cells (NCI), 48 h.
Consider `CCOc1ccc(Nc2c3ccccc3nc3ccccc23)cc1`, for which the GI50 is 0.677 µM and 0.356 µM; the TGI is 3.99 µM and 3.74 µM.

In the case of `CCCCCCCCCCCCCC[n+]1cccc(C(N)=O)c1`, the GI50 is 9.42 µM and the TGI stood at 26.3 µM.

In the case of `COc1cc2nc(-c3ccc(C(F)(F)F)cc3)cc(OCCCN3CCCC3)c2cc1OC`, the GI50 is 1.59 µM and the TGI was found to be 14.2 µM.

Take `C/C1=C\CC[C@@](C)(O)[C@@H]2C[C@H](CC/C(C)=C/CC1)C1(CC1)C(=O)O2`: the GI50 was 46.5 µM and the TGI is greater than 100 µM.

Consider `COc1ccc(C(=O)c2nc3ccccc3n2CC(=O)c2ccc(Cl)cc2)cc1`, for which the GI50 is 7.04 µM and the TGI was greater than 100 µM.

As to `O=C(NCCN1CCNCC1)c1ccc(Nc2nc3ccccc3c3occc23)cc1`, the GI50 was 11.1 µM and the TGI was found to be 27.9 µM.

Compound `COc1cc(C2c3cc4c(cc3[C@@H](Nc3ccc5c(c3)OCCO5)C3COC(=O)[C@H]23)OCO4)cc(OC)c1O` (stereo not given in full) yielded a TGI of 12.9 µM.

Take `OCc1ccc(N2CCOCC2)cc1Cl`: the GI50 was greater than 100 µM and the TGI was greater than 100 µM.
